Some test systems named below: HT-29; 786-0; CCRF-CEM; KM12; IGROV-1; HCT-15; OVCAR-5; HCT-116; NCI-H460; UACC-62; M19-MEL; SNB-75; K562; MOLT-4; UACC-257; PC-3; SR; Hs-578T; SN12C; T47D.
What all share (experiment): DTP human tumour cell line panel, 48 h

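Interpolation was linear, between the two tested concentrations surrounding the appropriate level; five concentrations were tested over 48 hours in 96-well plates. GI50 = concentration required for 50% inhibition of growth.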 Active and inactive are the calls of the source. No stated cut-off is given here; in the data, active = GI50 up to about 1.1 µM and inactive = higher.

Broadly, the GI50 is the concentration giving 50% growth inhibition.

With `O=C1CC(c2c[nH]c3ccccc23)C(=O)N1c1ccccc1` (stereo not drawn), the GI50 in the assay with HT-29 is > 100 µM (inactive); with 786-0, > 100 µM (inactive); in the assay with CCRF-CEM, > 100 µM (inactive); in the assay on KM12, > 100 µM (inactive); with IGROV-1 it was > 100 µM (inactive); with HCT-15, over 100 µM. The GI50 with OVCAR-5, with HCT-116, in the assay on NCI-H460, in the assay with UACC-62, in the assay on M19-MEL and in the assay with SNB-75 was > 100 µM (inactive) in each case. Also, the GI50 in the assay on K562, with MOLT-4 and in the assay with UACC-257 was > 100 µM (inactive) throughout.

As for `CCOC(=O)/C([O-])=C(\C(=O)OCC)[n+]1c(C)n(C)c2ccccc21`, the GI50 with HT-29, with 786-0, in the assay with CCRF-CEM, with KM12, with IGROV-1 and in the assay on OVCAR-5 was > 100 µM (inactive) throughout. The GI50 with HCT-116, with NCI-H460, in the assay on UACC-62, in the assay on M19-MEL, in the assay with SNB-75 and in the assay on K562 was > 100 µM (inactive) in each case. The GI50 in the assay on MOLT-4 and in the assay on UACC-257 was > 100 µM (inactive) throughout.

Regarding `CCN(CC)C1=Nc2ccccc2-n2ccnc2C1`, the GI50 with HT-29, in the assay on 786-0, in the assay on PC-3, in the assay with SR, in the assay with CCRF-CEM and in the assay with KM12 was > 100 µM (inactive) throughout. Also, the GI50 is > 100 µM (inactive) in the assay on IGROV-1; over 100 µM in the assay on HCT-15; > 100 µM (inactive) in the assay with OVCAR-5; > 100 µM (inactive) in the assay with HCT-116; 95.1 µM (inactive) with NCI-H460; > 100 µM (inactive) in the assay with Hs-578T. Also, the GI50 is > 100 µM (inactive) with SN12C; > 100 µM (inactive) in the assay on UACC-62; 70.5 µM (inactive) in the assay on SNB-75; > 100 µM (inactive) in the assay with K562; > 100 µM (inactive) in the assay on T47D; > 100 µM (inactive) with MOLT-4. Also, in the assay with UACC-257, the GI50 is > 100 µM (inactive).

Regarding `CN(C)S(=O)(=O)c1ccc2c(c1)/C(=C1/Nc3ccccc3C1=O)C(=O)N2`, the GI50 in the assay on HT-29 was > 100 µM (inactive); in the assay with 786-0, 16 µM (inactive); in the assay on PC-3, 23 µM (inactive); with SR, 14.7 µM (inactive); with CCRF-CEM, > 100 µM (inactive); with KM12, > 100 µM (inactive). The GI50 was 11.9 µM (inactive) in the assay with IGROV-1; 87.9 µM with HCT-15; > 100 µM (inactive) with OVCAR-5; 23.1 µM (inactive) in the assay on HCT-116; 24.7 µM (inactive) with NCI-H460; 14.4 µM (inactive) with Hs-578T. Moreover, the GI50 in the assay on SN12C was 38 µM (inactive); with UACC-62 it was 14.7 µM (inactive); in the assay with SNB-75, 0.0617 µM (active); in the assay with K562, 34.8 µM (inactive); in the assay on T47D it was 24.8 µM (inactive); with MOLT-4, 14.1 µM (inactive). Moreover, the GI50 in the assay with UACC-257 was > 100 µM (inactive).

For `C/C(CC(=O)Nc1ccc([N+](=O)[O-])cc1)=N/N=C(N)N`, the GI50 in the assay with HT-29, with 786-0, in the assay with CCRF-CEM, in the assay on KM12, with IGROV-1 and with OVCAR-5 was > 100 µM (inactive) each time. In addition, the GI50 in the assay with HCT-116, with NCI-H460, in the assay with UACC-62, with M19-MEL, in the assay on SNB-75 and in the assay on K562 was > 100 µM (inactive) in each case. In addition, the GI50 in the assay on MOLT-4 and in the assay on UACC-257 was > 100 µM (inactive) each time.

Take `CCCCCCCCCCCCCC[S+](C)C`: the GI50 was 1.56 µM (inactive) with HT-29; 1.33 µM (inactive) with 786-0; 1.24 µM (inactive) in the assay with PC-3; 0.538 µM (active) in the assay on SR; 1.23 µM (inactive) in the assay on CCRF-CEM; 1.57 µM (inactive) in the assay with KM12. Moreover, the GI50 in the assay on IGROV-1 is 1.12 µM (inactive); with HCT-15, 3.93 µM; with OVCAR-5, 2.88 µM (inactive); in the assay with HCT-116, 2.51 µM (inactive); with NCI-H460, 2.11 µM (inactive); with Hs-578T it was 1.65 µM (inactive). The GI50 in the assay with SN12C was 1.59 µM (inactive); with UACC-62 it was 2.22 µM (inactive); in the assay on SNB-75 it was 1.58 µM (inactive); with K562, 1.4 µM (inactive); in the assay with T47D it was 2.1 µM (inactive); in the assay with MOLT-4 it was 1.23 µM (inactive). The GI50 with UACC-257 was 2.45 µM (inactive).

Turning to `O=C1CCC(=O)N1n1c(Cc2ccccc2)n[nH]c1=O`, the GI50 in the assay on HT-29 is > 100 µM (inactive); in the assay with 786-0 it was > 100 µM (inactive); in the assay with PC-3, > 100 µM (inactive); with SR, > 100 µM (inactive); in the assay with CCRF-CEM, > 100 µM (inactive); in the assay on KM12, 7.29 µM (inactive). Besides, the GI50 is > 100 µM (inactive) in the assay on IGROV-1; over 100 µM in the assay with HCT-15; > 100 µM (inactive) in the assay on OVCAR-5; > 100 µM (inactive) with HCT-116; > 100 µM (inactive) in the assay on NCI-H460; > 100 µM (inactive) with Hs-578T. The GI50 is > 100 µM (inactive) with SN12C; > 100 µM (inactive) with UACC-62; 5.26 µM (inactive) with SNB-75; > 100 µM (inactive) in the assay on K562; > 100 µM (inactive) in the assay on T47D; > 100 µM (inactive) in the assay on MOLT-4. Also, in the assay on UACC-257, the GI50 is > 100 µM (inactive).

Regarding `CO/N=C1\CC(C)N2C(=O)C(C(C)C)NC(=O)C(NC(=O)c3c4nc5c(C(=O)NC6C(=O)NC(C(C)C)C(=O)N7C(C)CC(O)C7C(=O)N(C)CC(=O)N(C)C(C(C)C)C(=O)OC6C)ccc(C)c5oc-4c(C)c(=O)c3N)C(CO)OC(=O)C(C)N(C)C(=O)CN(C)C(=O)C12` (stereo not drawn), the 50% growth inhibitory concentration (GI50) in the assay with HT-29 is 0.526 µM (active); in the assay on 786-0, 1.01 µM (active); with PC-3, 1.95 µM (inactive); with SR it was 0.0184 µM (active); in the assay with CCRF-CEM it was 0.0703 µM (active); with KM12 it was 0.877 µM (active). The 50% growth inhibitory concentration (GI50) was 0.191 µM (active) in the assay with IGROV-1; 7.01 µM with HCT-15; 6.92 µM (inactive) with OVCAR-5; 0.321 µM (active) in the assay with HCT-116; 0.098 µM (active) in the assay on NCI-H460; 0.906 µM (active) in the assay on Hs-578T. Besides, the GI50 is 0.416 µM (active) in the assay on SN12C; 0.29 µM (active) in the assay on UACC-62; 0.883 µM (active) in the assay with SNB-75; 0.159 µM (active) in the assay on K562; 0.574 µM (active) with T47D; 0.222 µM (active) in the assay on MOLT-4. In addition, in the assay with UACC-257, the GI50 was 0.65 µM (active).
